Literature values in patent US6423677B1, “Cleaner/degreaser concentrate compositions” (Buckeye International, Inc., priority 1995, dated 2002).

Settings: in water, ambient temperature

Row | SMILES | aqueous ambient temperature solubility [wt. %]
1 | CCN(CC)c1ccccc1 [N,N-diethylaniline] | 1.4
2 | CC(=O)CC(C)C [methylisobutyl ketone] | 2.0
3 | CC(=O)c1ccccc1 [acetophenone] | 0.5
4 | OCc1ccccc1 [benzyl alcohol] | 4.4
5 | c1ccc(N2CCOCC2)cc1 [N-phenylmorpholine] | 1.0
6 | OCCOc1ccccc1 [2-phenoxyethanol] | 2.3
7 | CC[N+](=O)[O-] [nitroethane] | 4.5
8 | CCCCOC(C)=O [n-butyl acetate] | 0.7
9 | O=Cc1ccccc1 [benzaldehyde] | 0.3
10 | CCOC(=O)CC(=O)OCC [diethyl malonate] | 2.08
11 | O=C1CCCCC1 [cyclohexanone] | 2.3
12 | CCOC(=O)CCCC(=O)OCC [diethyl glutarate] | 0.88
13 | OCCc1ccccc1 [β-phenylethanol] | 1.6
14 | CCOC(=O)CCCCC(=O)OCC [diethyl adipate] | 0.43
15 | CC(O)COc1ccccc1 (centres unmarked) [1-phenoxy-2-propanol] | 1.1
16 | CCCCCO [n-amyl alcohol] | 2.7
17 | CCCCCOC(C)=O [n-amyl acetate] | 0.25
18 | CC1=CC(=O)CC(C)(C)C1 [isophorone] | 1.2

Same assay, conditions: in water; solvents not useful in the invention

Row | SMILES | aqueous solubility
19 | CC1COC(=O)O1 (centres unmarked) [propylene carbonate] | 19.6 wt. %
20 | COCC(C)OC(C)=O (centres unmarked) [propylene glycol monomethyl ether acetate] | 16.5 wt. %
21 | CCCCC(CC)COCCO (centres unmarked) [2-(2-ethylhexoxy)-ethanol] | 0.095 wt. %
22 | CC(C)CC(=O)CC(C)C [2,6-dimethyl-4-heptanone] | 0.05 wt. %
23 | CN1CCCC1=O [N-methyl pyrrolidone] | infinite
